Results published in article PMC6321475, “Synthesis and Evaluation of the 4-Substituted 2-Hydroxy-5-Iodochalcones and Their 7-Substituted 6-Iodoflavonol Derivatives for Inhibitory Effect on Cholinesterases and β-Secretase” (International Journal of Molecular Sciences, 2018).
Where two headings read alike, the source gives them in different places.

Columns and labels:
Assay type in all cases: biochemical
[1] = biological target: acetylcholinesterase (AChE) (Homo sapiens, UniProt P22303); assay: biochemical
[2] = biological target: butyrylcholinesterase (BChE) (Homo sapiens, UniProt P06276); assay: biochemical
[3] = biological target: T1, BACE-1 (Homo sapiens, UniProt P56817); assay: In vitro BACE-1 inhibitory FRET assay; details: 60 min at 25 °C, pH 4.5
T1 construct: purchased Pan Vera; host or cells: baculovirus-expressed

[4] = biological target: BChE (Homo sapiens, UniProt P06276); assay: Kinetic study against BChE (Lineweaver-Burk and Dixon plots); details: for Ki: Dixon plot, substrate butyrylthiocholine iodide; for mode of inhibition of BChE: kinetic analysis
Procedure: (§1) The experiment was performed using different inhibitor (2h, 3b or 3p) concentrations (0, 2.5, 3.5 and 5 µM) and substrate (acetylthiocholine iodide (ACh) or butyrylthiocholine iodide (BCh) concentrations (0.1, 0.5, 2.5 and 5 µM). The reaction was carried out in triplicate and the absorbences were measured at 412 nm after every 1 s. A linear graph of the absorbences against time were plotted to obtain the velocity. Finally, the lineweaver burk plot (reciprocal of the velocity versus reciprocal of the subtrate concentrations) was plotted. as well as the Dixon plot (reciprocal of the velocity versus inhibitor concentration). The inhibition constant Ki, was determined by calculating the straight line equations and identifying the point at which the lines would intersect.

[5] = biological target: AChE (Homo sapiens, UniProt P22303); assay: Kinetic study against AChE (Lineweaver-Burk and Dixon plots)
Procedure: as §1

[6] = mean ± SD, three independent experiments

Chain of butyrylcholinesterase (BChE) (P06276 29-602): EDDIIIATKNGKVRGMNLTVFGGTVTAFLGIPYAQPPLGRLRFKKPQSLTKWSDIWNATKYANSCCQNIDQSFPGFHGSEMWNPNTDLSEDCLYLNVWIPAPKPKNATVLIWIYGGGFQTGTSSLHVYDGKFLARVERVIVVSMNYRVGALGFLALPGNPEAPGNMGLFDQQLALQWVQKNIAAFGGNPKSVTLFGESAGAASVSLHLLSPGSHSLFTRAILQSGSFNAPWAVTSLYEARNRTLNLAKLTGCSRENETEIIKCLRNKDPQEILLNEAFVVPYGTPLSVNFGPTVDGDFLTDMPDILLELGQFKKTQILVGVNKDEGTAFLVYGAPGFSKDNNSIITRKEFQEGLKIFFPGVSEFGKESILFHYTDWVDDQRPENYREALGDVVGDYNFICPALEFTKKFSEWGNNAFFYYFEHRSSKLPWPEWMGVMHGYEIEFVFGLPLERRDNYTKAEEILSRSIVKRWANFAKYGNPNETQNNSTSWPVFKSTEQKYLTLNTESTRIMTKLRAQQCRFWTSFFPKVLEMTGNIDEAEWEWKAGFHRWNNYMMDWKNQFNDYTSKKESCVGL
Chain of BChE (P06276 29-602): as above
Chain of acetylcholinesterase (AChE) (P22303 32-614): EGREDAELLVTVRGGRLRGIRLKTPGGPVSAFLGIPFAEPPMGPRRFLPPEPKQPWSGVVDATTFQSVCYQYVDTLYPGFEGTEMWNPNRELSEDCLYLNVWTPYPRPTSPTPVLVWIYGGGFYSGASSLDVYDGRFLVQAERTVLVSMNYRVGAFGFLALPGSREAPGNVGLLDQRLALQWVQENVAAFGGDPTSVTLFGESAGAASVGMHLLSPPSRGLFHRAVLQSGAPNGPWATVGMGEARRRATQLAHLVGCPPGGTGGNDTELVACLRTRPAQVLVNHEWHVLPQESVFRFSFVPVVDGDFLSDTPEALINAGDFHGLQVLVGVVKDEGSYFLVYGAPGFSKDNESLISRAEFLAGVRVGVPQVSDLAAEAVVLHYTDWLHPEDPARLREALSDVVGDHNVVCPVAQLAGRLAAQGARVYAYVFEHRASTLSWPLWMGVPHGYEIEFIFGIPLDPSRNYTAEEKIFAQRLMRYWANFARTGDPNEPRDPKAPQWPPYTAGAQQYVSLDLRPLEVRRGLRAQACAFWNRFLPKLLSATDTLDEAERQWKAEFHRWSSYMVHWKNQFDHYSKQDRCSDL
T1 sequence (P56817 46-501): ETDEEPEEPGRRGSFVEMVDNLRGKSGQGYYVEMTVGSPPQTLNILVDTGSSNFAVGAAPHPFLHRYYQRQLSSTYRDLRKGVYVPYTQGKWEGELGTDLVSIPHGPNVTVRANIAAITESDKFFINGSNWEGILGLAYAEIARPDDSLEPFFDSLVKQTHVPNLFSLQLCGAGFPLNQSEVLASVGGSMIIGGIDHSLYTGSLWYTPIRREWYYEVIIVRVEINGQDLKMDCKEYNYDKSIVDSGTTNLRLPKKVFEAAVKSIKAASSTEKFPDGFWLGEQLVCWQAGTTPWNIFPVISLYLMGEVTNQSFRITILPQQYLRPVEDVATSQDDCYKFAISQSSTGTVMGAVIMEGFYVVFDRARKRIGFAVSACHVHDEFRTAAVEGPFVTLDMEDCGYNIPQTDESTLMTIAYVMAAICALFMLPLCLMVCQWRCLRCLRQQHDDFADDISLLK
Chain of AChE (P22303 32-614): as the sequence (P22303 32-614) above

| Compound | SI BChE/AChE [1] | IC50 [1, 6] | SI AChE/BChE [2] | IC50 [2, 6] | IC50 [1] | IC50 [2] | IC50 [3] | Ki [4] | mode of inhibition of BChE [4] | Ki ([5]; Dixon plot, substrate acetylthiocholine iodide) | mode of inhibition of AChE ([5]; kinetic analysis) |
| --- | --- | --- | --- | --- | --- | --- | --- | --- | --- | --- | --- |
| O=C(/C=C/c1ccccc1)c1cc(I)c(F)cc1O [Compound 2a, (E)-1-(4-Fluoro-2-hydroxy-5-iodophenyl)-3-phenylpropenone] | 0.72 | 38.78 ± 0.01 µM | 1.38 | 28.06 ± 0.1 µM |  |  |  |  |  |  |  |
| O=C(/C=C/c1ccc(F)cc1)c1cc(I)c(F)cc1O [Compound 2b, (E)-1-(4-Fluoro-2-hydroxy-5-iodophenyl)-3-(4-fluorophenyl)propenone] | 1.19 |  | 0.84 |  | 16.6 ± 0.03 µM | 19.73 ± 0.05 µM |  |  |  |  |  |
| O=C(/C=C/c1ccc(Cl)cc1)c1cc(I)c(F)cc1O [Compound 2c, (E)-3-(4-chlorophenyl)-1-(4-fluoro-2-hydroxy-5-iodophenyl)prop-2-en-1-one] | 1.39 | 10.5 ± 0.08 µM | 0.72 | 14.58 ± 0.14 µM |  |  |  |  |  |  |  |
| COc1ccc(/C=C/C(=O)c2cc(I)c(F)cc2O)cc1 [Compound 2d, (E)-1-(4-Fluoro-2-hydroxy-5-iodophenyl)-3-(4-methoxyphenyl)propenone] | 0.78 |  | 1.29 |  | 11 ± 0.3 µM | 8.49 ± 0.05 µM |  |  |  |  |  |
| O=C(/C=C/c1ccccc1)c1cc(I)c(Cl)cc1O [Compound 2e, (E)-1-(4-Chloro-2-hydroxy-5-iodophenyl)-3-phenylpropenone] | 2.37 |  |  |  | 10.64 ± 0.07 µM | 25.2 ± 0.3 µM |  |  |  |  |  |
| O=C(/C=C/c1ccc(F)cc1)c1cc(I)c(Cl)cc1O [Compound 2f, (E)-1-(4-Chloro-2-hydroxy-5-iodophenyl)-3-(4-fluorophenyl)propenone] | 1.87 | 9.57 ± 0.2 µM | 0.54 | 17.86 ± 0.08 µM |  |  |  |  |  |  |  |
| O=C(/C=C/c1ccc(Cl)cc1)c1cc(I)c(Cl)cc1O [Compound 2g, (E)-1-(4-Chloro-2-hydroxy-5-iodophenyl)-3-(4-chlorophenyl)propenone] |  |  |  |  | 11 ± 0.06 µM | > 100 µM |  |  |  |  |  |
| COc1ccc(/C=C/C(=O)c2cc(I)c(Cl)cc2O)cc1 [Compound 2h, (E)-1-(4-Chloro-2-hydroxy-5-iodophenyl)-3-(4-methoxyphenyl)propenone] | 0.36 | 11.72 ± 0.07 µM | 2.81 | 4.17 ± 0.15 µM |  |  | 13.82 ± 0.03 µM | 1.36 ± 0.17 µM | non-competitive inhibitor |  |  |
| O=C(/C=C/c1ccccc1)c1cc(I)c(Br)cc1O [Compound 2i, (E)-1-(4-Bromo-2-hydroxy-5-iodophenyl)-3-phenylpropenone] | 0.24 |  | 4.12 |  | 58.14 ± 0.21 µM | 14.11 ± 0.11 µM |  |  |  |  |  |
| O=C(/C=C/c1ccc(Cl)cc1)c1cc(I)c(Br)cc1O [Compound 2k, (E)-1-(4-Bromo-2-hydroxy-5-iodophenyl)-3-(4-chlorophenyl)propenone] | 0.90 |  | 1.11 |  | 11.56 ± 0.05 µM | 10.44 ± 0.09 µM |  |  |  |  |  |
| COc1ccc(/C=C/C(=O)c2cc(I)c(Br)cc2O)cc1 [Compound 2l, (E)-1-(4-Bromo-2-hydroxy-5-iodophenyl)-3-(4-methoxyphenyl)propenone] | 1.45 |  | 0.69 |  | 10.51 ± 0.03 µM | 15.25 ± 0.01 µM |  |  |  |  |  |
| COc1cc(O)c(C(=O)/C=C/c2ccccc2)cc1I [Compound 2m, (E)-1-(2-Hydroxy-5-iodo-4-methoxyphenyl)-3-phenylprop-2-en-1-one] | 0.95 | 10.01 ± 0.09 µM | 1.05 | 9.52 ± 0.03 µM |  |  |  |  |  |  |  |
| COc1cc(O)c(C(=O)/C=C/c2ccc(F)cc2)cc1I [Compound 2n, (E)-3-(4-Fluorophenyl)-1-(2-hydroxy-5-iodo-4-methoxyphenyl)prop-2-en-1-one] | 0.63 | 9.38 ± 0.07 µM | 1.59 | 5.91 ± 0.05 µM |  |  | 25.07 ± 0.1 µM |  |  |  |  |
| COc1cc(O)c(C(=O)/C=C/c2ccc(Cl)cc2)cc1I [Compound 2o, (E)-3-(4-Chlorophenyl)-1-(2-hydroxy-5-iodo-4-methoxyphenyl)prop-2-en-1-one] | 1.05 | 11.1 ± 0.12 µM | 0.95 | 11.6 ± 0.17 µM |  |  |  |  |  |  |  |
| COc1ccc(/C=C/C(=O)c2cc(I)c(OC)cc2O)cc1 [Compound 2p, (E)-1-(2-Hydroxy-5-iodo-4-methoxyphenyl)-3-(4-methoxyphenyl)prop-2-en-1-one] | 0.45 | 10.96 ± 0.03 µM | 2.24 | 4.89 ± 0.02 µM |  |  | 70.79 ± 0.2 µM |  |  |  |  |
| O=c1c(O)c(-c2ccccc2)oc2cc(F)c(I)cc12 [Compound 3a, 7-Flu.oro-3-hydroxy-6-iodo-2-phenyl-4H-chromen-4-one] | 0.91 |  | 1.10 |  | 29.71 ± 0.01 µM | 27.01 ± 0.06 µM |  |  |  |  |  |
| O=c1c(O)c(-c2ccc(F)cc2)oc2cc(F)c(I)cc12 [Compound 3b, 7-Flu.oro-2-(4-fluorophenyl)-3-hydroxy-6-iodo-4H-chromen-4-one] | 9.22 | 3.23 ± 0.02 µM | 0.11 | 29.78 ± 0.04 µM |  |  | 32.18 ± 0.15 µM |  |  | 4.34 ± 1.1 µM | mixed type of inhibition |
| O=c1c(O)c(-c2ccc(Cl)cc2)oc2cc(F)c(I)cc12 [Compound 3c, 2-(4-C.hlorophenyl)-7-fluoro-3-hydroxy-6-iodo-4H-chromen-4-one] | 10.8 | 3.45 ± 0.07 µM | 0.09 | 37.51 ± 0.08 µM |  |  | 19.69 ± 0.05 µM |  |  |  |  |
| COc1ccc(-c2oc3cc(F)c(I)cc3c(=O)c2O)cc1 [Compound 3d, 7-Flu.oro-3-hydroxy-6-iodo-2-(4-methoxyphenyl)-4H-chromen-4-one] | 0.50 |  | 1.98 |  | 58.18 ± 0.03 µM | 29.41 ± 0.04 µM |  |  |  |  |  |
| O=c1c(O)c(-c2ccccc2)oc2cc(Cl)c(I)cc12 [Compound 3e, 7-Chl.oro-3-hydroxy-6-iodo-2-phenyl-4H-chromen-4-one] | 0.14 |  | 7.21 |  | 47.85 ± 0.04 µM | 6.64 ± 0.03 µM |  |  |  |  |  |
| O=c1c(O)c(-c2ccc(F)cc2)oc2cc(Cl)c(I)cc12 [Compound 3f, 7-Chl.oro-2-(4-fluorophenyl)-3-hydroxy-6-iodo-4H-chromen-4-one] | 0.47 |  | 2.11 |  | 38.39 ± 0.02 µM | 18.17 ± 0.1 µM |  |  |  |  |  |
| O=c1c(O)c(-c2ccc(Cl)cc2)oc2cc(Cl)c(I)cc12 [Compound 3g, 7-Chl.oro-2-(4-chlorophenyl)-3-hydroxy-6-iodo-4H-chromen-4-one] | 0.13 |  | 7.69 |  | 59.1 ± 0.05 µM | 7.69 ± 0.01 µM |  |  |  |  |  |
| COc1ccc(-c2oc3cc(Cl)c(I)cc3c(=O)c2O)cc1 [Compound 3h, 7-Chl.oro-3-hydroxy-6-iodo-2-(4-methoxyphenyl)-4H-chromen-4-one] | 0.40 | 14.33 ± 0.03 µM | 2.51 | 5.72 ± 0.01 µM |  |  |  |  |  |  |  |
| O=c1c(O)c(-c2ccccc2)oc2cc(Br)c(I)cc12 [Compound 3i, 7-Bro.mo-3-hydroxy-6-iodo-2-phenyl-4H-chromen-4-one] | 0.57 |  | 1.73 |  | 9.96 ± 0.01 µM | 5.76 ± 0.04 µM |  |  |  |  |  |
| O=c1c(O)c(-c2ccc(F)cc2)oc2cc(Br)c(I)cc12 [Compound 3j, 7-Bro.mo-2-(4-fluorophenyl)-3-hydroxy-6-iodo-4H-chromen-4-one] | 2.42 |  | 0.41 |  | 11.16 ± 0.01 µM | 27.01 ± 0.07 µM |  |  |  |  |  |
| O=c1c(O)c(-c2ccc(Cl)cc2)oc2cc(Br)c(I)cc12 [Compound 3k, 7-Bro.mo-2-(4-chlorophenyl)-3-hydroxy-6-iodo-4H-chromen-4-one] | 0.18 |  | 5.57 |  | 29.24 ± 0.03 µM | 5.25 ± 0.01 µM |  |  |  |  |  |
| COc1cc2oc(-c3ccccc3)c(O)c(=O)c2cc1I [Compound 3m, 3-Hyd.roxy-6-iodo-7-methoxy-2-phenyl-4H-chromen-4-one] | 1.14 |  | 0.88 |  | 9.25 ± 0.09 µM | 10.5 ± 0.02 µM |  |  |  |  |  |
| COc1cc2oc(-c3ccc(F)cc3)c(O)c(=O)c2cc1I [Compound 3n, 2-(4-F.luorophenyl)-3-hydroxy-6-iodo-7-methoxy-4H-chromen-4-one] | 1.29 |  | 0.76 |  | 6.15 ± 0.01 µM | 7.93 ± 0.06 µM |  |  |  |  |  |
| COc1cc2oc(-c3ccc(Cl)cc3)c(O)c(=O)c2cc1I [Compound 3o, 2-(4-C.hlorophenyl)-3-hydroxy-6-iodo-7-methoxy-4H-chromen-4-one] | 0.24 |  | 4.03 |  | 55.27 ± 0.04 µM | 13.7 ± 0.14 µM |  |  |  |  |  |
| COc1ccc(-c2oc3cc(OC)c(I)cc3c(=O)c2O)cc1 [Compound 3p, 3-Hyd.roxy-6-iodo-7-methoxy-2-(4-methoxyphenyl)-4H-chromen-4-one] | 0.45 | 7.19 ± 0.02 µM | 2.18 | 3.29 ± 0.03 µM |  |  | 22.44 ± 0.07 µM | 0.46 ± 0.16 µM | mixed kinetic type of inhibition |  |  |
